# Laboratory results taken from patent US5602176A, “Phenyl carbamate” (priority 1987, dated 1997).
# Read-outs that look alike come from different tables or passages of the source.
# What was measured:
# [1] = tested on: rat hippocampal slices (indirect method for acetylcholinesterase (AChE) inhibition); assay: Electrically evoked 3H-acetylcholine release from rat hippocampal slices; assay type: cell-based
# Source text: Electrically evoked ^3 H-acetylcholine release from rat hippocampal slices
# Electrically evoked ^3 H-acetylcholine (^3 H-ACh) release from rat hippocampal slices is a functional in vitro model to investigate presynaptic muscarinic autoreceptor agonists and antagonists. This model can also be used as an indirect method to evaluate drugs which inhibit acetylcholinesterase (AChE). Inhibition of AChE activity leads to the accumulation of endogenous ACh which then interacts with presynaptic muscarinic autoreceptors and inhibits further release of ^3 H-ACh.
# Rat hippocampal slices (Wistar strain, 180-200 g) are prepared by chopping into cross sections whole hippocampal slices at a distance of 0.3 mm with a McIlwain tissue chopper. Hippocampal slices obtained from 3 rats are incubated for 30 min. at 23° C. in 6 ml Krebs-Ringer containing 0.1 uCi ^3 H-choline and transferred into the superfusion chamber and superfused with Kreb's medium containing 10 μM hemicholinium-3 at a rate of 1.2 ml/min. at 30° C. Collection of 5 min. fractions of the superfusate begins after 60 min. of superfusion. Two periods of electrical stimulation (2 Hz rectangular pulses 2 msec, 10 mA, 2 min.) are applied after 70 min. (S1) and after 125 min. (S2) of superfusion. […] At the end of the experiments the slices are solubilized in conc. formic acid and tritium content is determined in the superfusate and the solubilized slices. Tritium outflow is expressed as the fractional rate of tritium outflow per min. Electrically evoked tritium outflow is calculated by subtraction of the extrapolated basal tritium outflow from the total tritium outflow during the two min. of electrical stimulation and the following 13 min. and is expressed as percent of the tritium content at the beginning of the sample collection. Drug effects on stimulation evoked tritium outflow are expressed as the ratios S2 /S1. All experiments are run in dublicates using a programmable 12 channel superfusion system. For the calculation a computer program is used.
# [2] = tested on: deoxyglucose (DOG) utilisation in the brain; assay: Muscarinic and nicotinic effects on brain glucose utilisation (deoxyglucose autoradiography); assay type: in vivo, rat; details: 7.5 μmol/kg p.o.
# Source text: Muscarinic and nicotinic effects on brain glucose utilisation
# Changes in the functional activity of the CNS are associated with altered deoxyglucose (DOG) utilisation in the brain which can be visualised simultaneously in several brain regions using the autoradiographic method of Sokoloff et al., J. Neurochem. 28, 897 (1977). The administration of cholinergic drugs either direct (muscarinic agonists) or indirect (accumulation of acetylcholine) induces in this model a characteristic "fingerprint" pattern by modifying the regional glucose metabolism.
# Male Wistar rats (150-200 g) are used. Drugs are administered at various doses and by different routes (i.v., p.o., i.p.) to animals. [14C]-2-deoxyglucose (125 μC/kg) is injected 45 min. before the animals are sacrificed. The brains are immediately excised, frozen at -80° C. and subsequently cut in slices with a thickness of 20 μm. The optical densities of the radiographic images are measured according to a modification of Sokoloff et al.
# [3] = biological target: AChE (Rattus norvegicus, UniProt P37136); assay type: in vivo; design: from tissue; host or cells: male OFA rats: cortex, hippocampus, striatum, pons/medulla, heart, blood; details: Transdermal 30 μmol/kg
# Description: The AChE activity is measured according to the method described by Ellman (Arch. Biochem. Biophys. 82, 70, 1959). Rat brain tissue is homogenized in cold phosphate buffer pH 7.3 (0.25 mM) containing 0.1% of Triton X-100. After centrifugation aliquots of the clear supernatant is used as enzyme source. The enzyme is preincubated with different concentrations of the inhibitor. After different times, substrate (acetylthiocholinjodide 0.5 mM) is added and the remaining activity determined.
# The compounds are dissolved in or diluted with n-heptane to a concentration of 1 or 3 mg/20 μl. […] The application place is immediately covered using a thin plastic film and a plaster. The animal has no access to the plaster. Various times after the administration the animals are killed by decapitation and the remaining AChE activity is measured.
# AChE, sequence (P37136 32-614): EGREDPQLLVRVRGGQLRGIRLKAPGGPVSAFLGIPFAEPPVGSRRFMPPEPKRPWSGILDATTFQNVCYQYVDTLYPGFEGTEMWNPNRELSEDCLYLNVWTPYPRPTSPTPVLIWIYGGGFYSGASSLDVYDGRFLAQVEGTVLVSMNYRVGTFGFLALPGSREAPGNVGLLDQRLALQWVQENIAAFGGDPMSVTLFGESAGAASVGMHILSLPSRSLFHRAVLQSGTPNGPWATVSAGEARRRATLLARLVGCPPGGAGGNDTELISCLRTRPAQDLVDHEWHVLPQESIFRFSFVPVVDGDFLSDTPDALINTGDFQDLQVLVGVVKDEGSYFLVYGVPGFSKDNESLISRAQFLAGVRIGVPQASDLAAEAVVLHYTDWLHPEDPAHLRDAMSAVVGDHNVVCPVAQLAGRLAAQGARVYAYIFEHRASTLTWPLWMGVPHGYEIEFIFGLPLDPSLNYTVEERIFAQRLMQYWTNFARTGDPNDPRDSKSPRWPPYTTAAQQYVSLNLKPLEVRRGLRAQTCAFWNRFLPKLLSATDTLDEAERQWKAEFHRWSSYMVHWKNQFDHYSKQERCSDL
smiles,measurement,setting,value
"CCN(C)C(=O)Oc1cccc([C@H](C)N(C)C)c1 [Compound A, (S)-N-ethyl-3-[(1-dimethylamino)ethyl]-N-methyl-phenyl-carbamate]",antagonism of the inhibitory effect by atropine,[1],can be antagonized by atropine
same,inhibition at 100 µM,"[1]; Rattus norvegicus, 3 h, 100 μM, read-out: inhibition of electrically evoked 3H-ACh release from hippocampal slices",~40%
same,changes in DOG utilisation in various rat brain regions,[2],significant changes in DOG utilisation
same,"AChE activity in % of controls ± SD, Blood",[3]; 0.5 hours after treatment,71.3 ± 12.3 % of controls
same,"AChE activity in % of controls ± SD, Cortex",[3]; 6 hours after treatment,42.4 ± 11.7 % of controls
same,"AChE activity in % of controls ± SD, Striatum",[3]; 6 hours after treatment,65.9 ± 15.5 % of controls
same,"AChE activity in % of controls ± SD, Blood",[3]; 24 hours after treatment,78.1 ± 17.8 % of controls
